Laboratory results from PubChem BioAssay (NCI).
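Each compound was tested at five concentrations against cells in 96-well plates for 48 hours. GI50 is the concentration that inhibits growth by half. The concentration for full growth arrest is given as TGI.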

Experiments:
Assay in all cases: NCI anticancer screen, dose series, 48 h
786-0 renal = test system: 786-0 renal
HCT-15 colon = test system: HCT-15 colon
HT29 colon = test system: HT29 colon
K-562 leukemia = test system: K-562 leukemia
MOLT-4 leukemia = test system: MOLT-4 leukemia
NCI-H226 lung = test system: NCI-H226 lung
OVCAR-8 ovarian = test system: OVCAR-8 ovarian
UACC-62 melanoma = test system: UACC-62 melanoma
UO-31 renal = test system: UO-31 renal
NCI/ADR-RES ovarian = test system: NCI/ADR-RES ovarian

SMILES	TGI (786-0 renal) [µM]	TGI (HCT-15 colon) [µM]	TGI (HT29 colon) [µM]	TGI (K-562 leukemia) [µM]	TGI (MOLT-4 leukemia) [µM]	TGI (NCI-H226 lung) [µM]	TGI (OVCAR-8 ovarian) [µM]	TGI (UACC-62 melanoma) [µM]	TGI (UO-31 renal) [µM]	TGI (NCI/ADR-RES ovarian) [µM]	GI50 (HCT-15 colon) [µM]	GI50 (HT29 colon) [nM]	GI50 (K-562 leukemia) [nM]	GI50 (MOLT-4 leukemia) [nM]	GI50 (NCI-H226 lung) [µM]	GI50 (NCI/ADR-RES ovarian) [nM]	GI50 (OVCAR-8 ovarian) [nM]	GI50 (UACC-62 melanoma) [nM]	GI50 (UO-31 renal) [nM]
O=C(c1ccc(Cl)cc1)N(C(=S)N1CCN(c2ccccn2)CC1)C1CCCCC1	> 100	> 100	> 100	> 100	96.5	70.5	> 100	> 100	> 100	–	–	–	–	–	–	–	–	–	–
O=C(c1ccccc1)C1S(=O)(=O)OCCOS1(=O)=O	> 100	–	> 100	> 100	–	–	> 100	> 100	> 100	–	–	–	–	–	–	–	–	–	–
C/C=C1\CN(C(=O)OC(C)(C)C)C1C(=O)OC(C)(C)C (configuration not stated)	> 100	> 100	> 100	> 100	> 100	–	> 100	> 100	> 100	> 100	–	–	–	–	–	–	–	–	–
CCOC(=O)/C(=C/c1ccc(C(=O)OC)cc1)N(CC)CC	> 100	> 100	–	82.7	> 100	79	> 100	> 100	> 100	–	–	–	–	–	–	–	–	–	–
O=C(N/N=C\c1ccc(N(CCCl)CCCl)cc1[N+](=O)[O-])c1cccnc1	–	> 100	> 100	> 100	> 100	> 100	> 100	> 100	> 100	> 100	> 100	> 100000	> 100000	> 100000	> 100	> 100000	> 100000	> 100000	> 100000
CCN(CC)CCN1C(=O)c2c(c3c4ccccc4[nH]c3c3ccc4ccccc4c23)C1=O	–	–	–	5.32	2.9	–	4.74	2.97	2.66	4.15	–	–	1820	666	–	1590	1780	1570	1360
Cc1sc2c(c1C)/C(=N\O)c1cccn1-2	52.3	> 100	> 100	–	> 100	> 100	> 100	> 100	> 100	> 100	–	–	–	–	–	–	–	–	–
CCOC(=O)c1nc2ccc(C(F)(F)F)cc2nc1Nc1ccc(Cl)c(Cl)c1	> 100	> 100	> 100	> 100	> 100	–	> 100	> 100	> 100	> 100	–	–	–	–	–	–	–	–	–
COc1cc2c(c(O)c1OC)CC1CCC(=O)N1C2c1cccc2ccccc12 (configuration not stated)	94.5	82.9	34.5	> 100	> 100	–	> 100	30.9	55.4	53.7	–	–	–	–	–	–	–	–	–
CC(=O)Oc1ccc2c(c1)CC[C@@H]1C2[C@@H](O[N+](=O)[O-])C[C@@]2(C)C1CC[C@@H]2O[N+](=O)[O-] (some centres not stated)	28.4	28.1	30.2	32.6	38.4	–	33.4	32.5	26.1	33.6	–	–	–	–	–	–	–	–	–
COc1cc(OC)c2c3c(OC)cc(OC)c4c(=O)c(O)c(C[C@@H](C)O)c(c5c(C[C@@H](C)O)c(O)c(=O)c1c25)c43	44.8	44.4	73	–	39.4	44.7	58.4	–	> 100	> 100	–	–	–	–	–	–	–	–	–
C=C(NC(=O)C(=C)NC(=O)c1csc(C2=NC3c4csc(n4)C4NC(=O)c5csc(n5)C(C(C)(O)C(C)O)NC(=O)C5CSC(=N5)/C(=C/C)NC(=O)C(C(C)O)NC(=O)c5csc(n5)C3(CC2)NC(=O)C(C)NC(=O)C(=C)NC(=O)C(C)NC(=O)C(C(C)CC)NC2C=Cc3c(C(C)O)cc(nc3C2O)C(=O)OC4C)n1)C(N)=O (configuration not stated)	3.26	> 34	3.14	–	–	3.8	10.8	2.42	> 100	> 100	–	–	–	–	–	–	1600	–	–
O=C(O)c1ccc(C2=Cc3cc(Cl)ccc3OC2)cc1	> 100	> 100	> 100	> 100	> 100	> 100	> 100	> 100	> 100	–	–	–	–	–	–	–	–	–	–
Cn1cc(-c2ccc3cc(-c4ccc(CC(=O)Nc5cc(C(C)(C)C)on5)cc4)cnc3c2)cn1	–	4.87	> 100	> 100	> 100	34.6	> 100	3.12	3.14	5.11	0.466	2260	1850	3010	2.46	1840	2160	1020	382
C=C1C(=O)O[C@@H]2[C@H](O)[C@@H](C)[C@@H]3C=CC(=O)[C@@]3(C)[C@@H](OC(=O)/C(C)=C/C)[C@H]12	–	1.06	4.15	3.48	2.09	8.97	2.72	1.11	10.1	5.39	–	–	–	–	–	–	–	–	–
C[C@@H]1C(=O)C[C@H]2C(C)(C)CCC[C@]2(C)[C@@]1(O)CCc1ccoc1	> 100	> 100	> 100	> 100	> 100	> 100	> 100	> 100	> 100	–	–	–	–	–	–	–	–	–	–
Cc1c(N=Nc2ccccc2)c(C)n(C2OC(CO)C(O)C(O)C2O)c(=S)c1C#N (configuration not stated)	> 100	> 100	> 100	> 100	70	–	–	18.9	73.1	> 100	–	–	–	–	–	–	–	–	–
CCOC(=O)C(Cc1c[nH]c2cc([N+](=O)[O-])ccc12)NS(=O)(=O)c1ccc2ccccc2c1 (configuration not stated)	76.1	41.2	31	39.1	> 100	48.2	55.7	31.3	63.5	–	–	–	–	–	–	–	–	–	–
Nc1[nH]nc2nc3ccccc3nc12	–	> 100	> 100	> 100	> 100	> 100	> 100	> 100	> 100	> 100	–	–	–	–	–	–	–	–	–
CC1(C)CCC(C)(C)C1C(=O)NC(O)C(=O)O (configuration not stated)	> 100	> 100	–	> 100	> 100	> 100	> 100	> 100	> 100	> 100	–	–	–	–	–	–	–	–	–
N=c1c2c(=S)n(-c3ccccc3)c(=S)n(-c3ccccc3)c2nc(SCCN2CCCC2)n1-c1ccccc1	2	3.86	3.6	3.62	3.35	18.4	4.2	3.04	–	42.1	–	–	–	–	–	–	–	–	–
O=C1CC(c2ccccc2)=Nc2ccccc2N1	> 100	> 100	> 100	> 100	> 100	> 100	> 100	> 100	> 100	–	–	–	–	–	–	–	–	–	–
O=C(CSc1nc(-c2ccccc2)c(-c2ccccc2)[nH]1)N/N=C/c1ccc(O)cc1	54.8	–	37.1	> 100	70.1	82	48	54.9	93.2	–	–	–	–	–	–	–	–	–	–
NC1=NS(=O)(=O)Nc2nc(-c3ccccc3)[nH]c21	> 100	> 100	> 100	> 100	> 100	> 100	> 100	> 100	> 100	–	–	–	–	–	–	–	–	–	–
CC(=O)Nc1ccc2[nH]c(C(=O)N3CC(CCl)c4c3cc([N+](=O)[O-])c3ccccc43)cc2c1 (configuration not stated)	> 100	> 100	> 100	> 45.8	> 67.6	58.8	> 100	> 31.6	–	> 100	–	–	–	–	–	–	–	–	–
Cc1ccc(C2=C(C#N)C(N)OC3=C2COc2ccccc23)cc1 (configuration not stated)	–	> 100	> 100	> 100	> 100	> 100	–	> 100	33.7	> 100	–	–	–	–	–	–	–	–	–
O=[N+]([O-])C(/C=N/Nc1ccccc1)/C=N/Nc1ccccc1	> 100	> 100	> 100	> 100	> 100	> 100	> 100	> 100	> 100	–	–	–	–	–	–	–	–	–	–
c1csc(-c2ccsc2-c2cccs2)c1	> 100	> 100	> 100	–	71.1	> 100	> 100	> 100	> 100	> 100	–	–	–	–	–	–	–	–	–
O=C(Nc1cccc([N+](=O)[O-])c1)c1n[nH]n(-c2cccc([N+](=O)[O-])c2)c1=O	> 100	–	> 100	> 100	> 100	> 100	> 100	> 100	> 100	> 100	–	–	–	–	–	–	–	–	–
COc1cc(OC)cc(-c2n/c(=C\c3c(O)[nH]c4ccc(OC)cc34)cc3c2=Nc2ccccc2-3)c1	–	15	4.15	6.64	6.36	56.9	32.4	36	> 100	18.7	3.85	2060	2650	2560	26.6	3660	12100	18300	41600
